Results reported in PMC5789975, “Computer-aided Discovery of Peptides that Specifically Attack Bacterial Biofilms” (Scientific Reports, 2018).
≈ marks a conversion by molar mass, not a printed value. Read-outs that look alike come from different tables or passages of the source. Ends that are not written are not given here.

What was measured:
[1] = test system: planktonic S. aureus MRSA (SAP0017); test: MIC determination, broth microdilution; type: cell-based, Staphylococcus aureus; conditions: for MIC: Staphylococcus aureus, MRSA; for MIC, MHB: Mueller Hinton Broth; for MIC, MHB / MIC, TSB with 1% Glucose: broth microdilution, ~5 × 10^5 CFU/ml, 37 °C overnight, visual read, mean of three biological replicates; for MIC, TSB with 1% Glucose: Tryptic Soy Broth with 1% glucose
Method: The MIC of the synthesized peptides was determined in both Mueller Hinton Broth (MHB) and Tryptic Soy Broth (TSB) supplemented with 1% glucose, using the broth microdilution method[21] with slight modifications. Briefly, 10 μl of a 10× concentrated peptide stock solution, vancomycin antibiotic, or vehicle control (water) was placed in the bottom of a well in a 96-well polypropylene round bottom plate (Corning Inc. Corning, NY). A bacterial suspension of S. aureus MRSA (SAP0017, clinical isolate kindly provided by Dr. Tony Chow, Vancouver General Hospital) was prepared from an overnight culture to a final cell density of ~5 × 10^5 CFU/ml and 90 μl of this was added to each well.

[2] = test system: S. aureus (MRSA SAP0017) biofilms; test: Static microtitre plate antibiofilm screen (crystal violet); type: cell-based, Staphylococcus aureus; conditions: SPOT-synthesized, highest peptide concentration evaluated, compared to untreated controls; listed from most to least active
Method: The SPOT-synthesized peptides were evaluated for their antibiofilm activity in vitro as described previously. Briefly, 5 μl of SPOT-peptide stock solution or a corresponding serial dilution was placed in a 96-well polypropylene round bottom plate (Corning Inc. Corning, NY) and 95 μl of a 1/100 dilution of an overnight culture of MRSA SAP0017 in TSB supplemented with 1% glucose was added to each well. The plates were incubated overnight at 37 °C to allow for bacterial growth and biofilm maturation. After 24 hours, the media containing planktonic bacteria was rinsed from each well with distilled water and the remaining biomass was stained with 0.1% crystal violet. The unbound dye was rinsed away and the biofilm bound dye was suspended in 70% ethanol and the absorbance at 595 nm was recorded on a plate reader. Percent biofilm inhibition was calculated by comparison to the amount of crystal violet stain in the untreated controls (defined as 100%) and the sterility control wells (defined as 0%). Results from three separate biological replicates were averaged and outliers were identified using the modified Thompson Tau test and removed from the analysis. The antibiofilm activity of all SPOT-derived peptides was assessed at multiple concentrations (up to five 2-fold dilutions from the stock solution) and the peptide concentration yielding the largest difference in percent inhibition of biofilm growth was used in subsequent analysis.

[3] = test system: MCP-1 production from PBMCs; test: MCP-1 chemokine induction by peptide alone (ELISA); type: cell-based, human; conditions: highest peptide concentration evaluated (40 µM), compared to 1018; six donors
Method: (§1) The cytotoxicity and immunomodulatory activity of both 1018 and 3002 was assessed as described previously. Briefly, peripheral blood mononuclear cells (PBMCs) were collected from healthy volunteers in accordance with the University of British Columbia ethics guidelines. PBMCs were plated in Costar 96-well flat bottom tissue culture treated plates at a final density of 1 × 10^6 cells/ml in RPMI media supplemented with 10% fetal bovine serum. Both peptides were tested at final concentrations of 40, 20 and 10 µM. Cytotoxicity was assessed using the Cytotoxicity Detection Kit (Roche Diagnostics, Basel, Switzerland) which measures lactate dehydrogenase activity released from damaged cells. Immune modulation was characterized by measuring the production of MCP-1 chemokine by induced by peptide alone as well as the suppression of interleukin (IL)-1β from PBMCs stimulated with 10 ng/ml Pseudomonas aeruginosa PAO1 lipopolysaccharide. Levels of MCP-1 and IL-1β were quantified by enzyme linked immunosorbent assays (ELISAs) using kits from eBioscience Inc. (San Diego, CA).

[4] = test system: MRSA SAP0017 biofilms grown in flow cells; test: Eradication of pre-formed biofilms in flow cells; type: cell-based, Staphylococcus aureus; conditions: BM2 media, SYTO-9/propidium iodide, confocal microscopy
Method: Bacterial biofilms were grown in BM2 media (62 mM potassium phosphate buffer, pH 7, 7 mM (NH4)2SO4, 2 mM MgSO4, 10 μM FeSO4 and 0.4% (wt/vol) glucose) for 48 hours followed by treatment with peptide (2 or 0.125 µM) for an additional 24 hours. The samples were stained with SYTO-9 and propidium iodide fluorescent dyes to image total and dead cells, respectively. Flow-cell images were acquired on an Olympus FluoView FV1000 confocal laser scanning microscope (Olympus Corp. Tokyo, Japan) and were analyzed with the Fiji software package.

[5] = test system: S. aureus (MRSA SAP0017) biofilms; test: Static microtitre plate antibiofilm screen (crystal violet); type: cell-based, Staphylococcus aureus
MRSA USA300 LAC = test: Murine cutaneous abscess model; type: in vivo, CD-1 mice; conditions: 14 mg/kg
Method: The in vivo activity of the identified antibiofilm peptide 3002 and the parental compound 1018 was evaluated using a recently described murine abscess model of chronic MRSA infections. All animal experiments were performed in accordance with The Canadian Council on Animal Care (CCAC) guidelines and were approved by the University of British Columbia Animal Care Committee. Briefly, the fur on the backs of 6-week old female CD-1 mice (Charles River Laboratories, Wilmington, MA) was removed by shaving and subsequent treatment with depilatory cream. MRSA USA300 LAC was grown to an optical density at 600 nm of 1 in tryptic soy broth (TSB) at which point cells were washed twice with sterile PBS and then suspended in PBS to a final cell density of 5 × 10^7 CFU/50 μL. Mice were infected with 50 μL of bacteria subcutaneously on the right flank of the back and 1 hour later, given saline (for controls) or treated with 14 mg/kg peptide (1018 or 3002) via intra-abscess injection. Mice were monitored daily and their weight as well as abscess lesion sizes (measured using a caliper) were recorded every 24 hrs. Visible dermonecrosis or white lesions (filled with pus) were considered as part of the abscess lesion while swelling/inflammation was disregarded in the abscess size measurements. Three days post-infection, abscesses were excised and homogenized using a Bead Ruptor 4 tissue homogenizer (OMNI International, Kennesaw GA) for 5 minutes and serially plated for viable CFU quantification.

[6] = test system: IL-1β production from LPS-stimulated PBMCs; test: Suppression of IL-1β from LPS-stimulated PBMCs (ELISA); type: cell-based, human; conditions: PBMCs stimulated with 10 ng/ml P. aeruginosa PAO1 LPS; 10, 20, 40 µM peptide; six donors
Method: as §1

| Molecule | antibiofilm activity of SPOT-synthesized Experimental Validation Set peptides [2] | MIC, MHB [1] | MIC, TSB with 1% Glucose [1] | also measured |
| --- | --- | --- | --- | --- |
| CN[C@H](CC(C)C)C(=O)N[C@H]1C(=O)N[C@@H](CC(N)=O)C(=O)N[C@H]2C(=O)N[C@H]3C(=O)N[C@H](C(=O)N[C@H](C(=O)O)c4cc(O)cc(O)c4-c4cc3ccc4O)[C@H](O)c3ccc(c(Cl)c3)Oc3cc2cc(c3O[C@@H]2O[C@H](CO)[C@@H](O)[C@H](O)[C@H]2O[C@H]2C[C@](C)(N)[C@H](O)[C@H](C)O2)Oc2ccc(cc2Cl)[C@H]1O [Vancomycin, reference compound] | – | – | – | MIC ([1]; read-out: MIC, MHB): 0.34 µM (≈ 0.493 µg/mL); MIC ([1]; read-out: MIC, TSB with 1% Glucose): 0.68 µM (≈ 0.986 µg/mL) |
| GLIIKIIKKRLW [compound 26, Experimental Validation Set peptide] | exhibited antibiofilm activity | – | – | – |
| IKWVLRKIVQII [compound 37, Experimental Validation Set peptide] | exhibited antibiofilm activity | – | – | – |
| ILVRWIRWRIQW-NH2 [compound 3002, QSAR–predicted antibiofilm peptide, >95% purity, C-terminally amidated] | exhibited antibiofilm activity | 2 µM | 4 µM | MCP-1 production induced by peptide alone [3]: induced significantly more MCP-1 production; eradication of 2-day old pre-formed MRSA biofilms ([4]; 0.125 μM peptide for 24 h): effectively eradicated; eradication of 2-day old pre-formed MRSA biofilms ([4]; 2 µM peptide for 24 h): effectively eradicated; concentration effectively inhibiting MRSA biofilm growth (as low as) ([5]; >95% pure peptide, static microtitre plate assay): 1 µM; enhancement in antibiofilm potency compared to 1018 ([5]; >95% pure peptides, static microtitre plate assay): 8 fold; reduction of abscess lesion size compared to untreated controls (MRSA USA300 LAC; single intra-abscess injection 1 h after infection, 3 days): 2.8 fold; effect on bacterial load recovered from the abscesses (MRSA USA300 LAC; single intra-abscess injection, CFU three days post-infection): neither peptide had any effect; suppression of IL-1β production [6]: in a concentration dependent manner to similar levels as seen for peptide 1018 |
| IQLKLIWVKRKW [compound 48, Experimental Validation Set peptide] | exhibited antibiofilm activity | – | – | – |
| IQRWWKVWLKVI-NH2 [compound 3004, QSAR–predicted antibiofilm peptide, >95% purity, C-terminally amidated] | exhibited antibiofilm activity | 4 µM | 16 µM | – |
| IWLRLKVVLKRK-NH2 [compound 3006, QSAR–predicted antibiofilm peptide, >95% purity, C-terminally amidated] | exhibited antibiofilm activity | 4 µM | 32 µM | – |
| KKWQLLIKWKLR [compound 11, Experimental Validation Set peptide] | exhibited antibiofilm activity | – | – | – |
| LIVIQLLKKWWK [compound 41, Experimental Validation Set peptide] | exhibited antibiofilm activity | – | – | – |
| LWQLWLKLKLKG [compound 56, Experimental Validation Set peptide] | exhibited antibiofilm activity | – | – | – |
| RRIIKILLWKLR [compound 10, Experimental Validation Set peptide] | exhibited antibiofilm activity | – | – | – |
| RRQWRGWVRIWL-NH2 [compound 3005, QSAR–predicted antibiofilm peptide, >95% purity, C-terminally amidated] | exhibited antibiofilm activity | 4 µM | 64 µM | – |
| VIKVLIKRWLKL [compound 9, Experimental Validation Set peptide] | exhibited antibiofilm activity | – | – | – |
| VIKWLLKILRAI-NH2 [compound 3001, QSAR–predicted antibiofilm peptide, >95% purity, C-terminally amidated] | exhibited antibiofilm activity | 1 µM | 2 µM | – |
| VLKIKVKIWVVK-NH2 [compound 3007, QSAR–predicted antibiofilm peptide, >95% purity, C-terminally amidated] | exhibited antibiofilm activity | 16 µM | >64 µM | – |
| VLQIKKVLRLLL [compound 17, Experimental Validation Set peptide] | exhibited antibiofilm activity | – | – | – |
| VQWIQIVVWRKR [compound 6, Experimental Validation Set peptide] | exhibited antibiofilm activity | – | – | – |
| WIIRWIKIWLKI [compound 46, Experimental Validation Set peptide] | exhibited antibiofilm activity | – | – | – |
| WKKVQWLKRLLL-NH2 [compound 3003, QSAR–predicted antibiofilm peptide, >95% purity, C-terminally amidated] | exhibited antibiofilm activity | 4 µM | 16 µM | residual biofilm growth ([5]; >95% pure peptide, 32 μM): ~ 40% |
